Measurements reported in US20030055065A1, “Tricyclic amide and urea compounds useful for inhibition of G-protein function and for treatment of proliferative diseases” (priority 1993, published 2003).
Where “and” joins values, the source holds several entries; their conditions need not be identical. Identical values can stand only once. Like-named read-outs stand apart in the source and are kept apart here.

Key:
[1] = test system: T24-BAG4 human bladder carcinoma cells expressing an activated H-ras gene; test: Cell Mat Assay: tumor cell colony inhibition (tIC50); assay type: cell-based; conditions: inhibition of tumor cell growth
Experimental: (§1) Compound-induced colony inhibition was assayed by addition of serial dilutions of compound directly to the growth medium 24 h after tumor cell planting, and incubating cells for an additional 14 d to allow colony formation. Assays were terminated by rinsing monolayers twice with phosphate-buffered saline (PBS), fixing the monolayers with a 1% glutaraldehyde solution in PBS, then visualizing tumor cells by staining with X-Gal (Price, J., et al., Lineage analysis in the vertebrate nervous system by retrovirus-mediated gene transfer, Proc. Natl. Acad. Sci.84, 156-160(1987)). […] Both IC50 values were obtained by determining the density of tumor cells and mat cells by visual inspection and enumeration of cells per colony and the number of colonies under the microscope.

[2] = molecular target: T1, farnesyl protein transferase (FPT), partially purified from rat brain (Rattus norvegicus, UniProt Q02293+Q04631); test: Inhibition of farnesyl protein transferase (transfer of [3H]farnesyl to Ras-CVLS); assay type: biochemical
T1 construct: were partially purified from rat brain by ammonium sulfate fractionation followed by Q-Sepharose
T1 sequence (Q02293 whole entry, one chain of several): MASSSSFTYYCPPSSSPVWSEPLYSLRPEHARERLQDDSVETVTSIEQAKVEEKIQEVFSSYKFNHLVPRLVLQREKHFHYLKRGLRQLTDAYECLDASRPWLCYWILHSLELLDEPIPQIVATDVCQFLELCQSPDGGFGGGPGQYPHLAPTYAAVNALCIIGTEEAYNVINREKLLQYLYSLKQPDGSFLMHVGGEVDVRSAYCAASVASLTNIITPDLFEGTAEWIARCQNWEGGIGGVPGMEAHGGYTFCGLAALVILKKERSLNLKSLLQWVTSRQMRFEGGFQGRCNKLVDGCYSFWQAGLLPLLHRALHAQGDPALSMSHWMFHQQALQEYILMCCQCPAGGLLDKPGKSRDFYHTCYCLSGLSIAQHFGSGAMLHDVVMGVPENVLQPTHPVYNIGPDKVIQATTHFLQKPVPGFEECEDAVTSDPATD
Summary of the method: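 Partially purified farnesyl protein transferase with His6-tagged val12-Ha-Ras-CVLS substrate and [3H]farnesyl pyrophosphate, 30 min at room temperature. Stopped with SDS/TCA, precipitated Ras collected on GF/C filters; percent inhibition relative to DMSO vehicle control.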

[3] = test system: Normal human HEPM fibroblasts; test: Cell Mat Assay: density of mat cells (mIC50); assay type: cell-based
Experimental: as §1

[4] = enzyme inhibition, read-out: FPT IC50
[5] = Ras-CVLS farnesylation, partially purified rat brain FPT, read-out: FPT IC50

With O=C(Cc1cc[n+]([O-])cc1)N1CCN(C2c3ccc(Cl)cc3CCc3cccnc32)CC1 (stereo not shown) [Example 425-B] as the molecule, how does the IC50 ([1]; Homo sapiens) read?
Its IC50 is 12.5 µM.

What about the IC50 [2, 4] of the same molecule?
The IC50 was 0.74 µM.

What about the IC50 ([3]; Homo sapiens, Fibroblast) of the same molecule?
Its IC50 is > 25 µM.

How did the IC50 ([1]; Homo sapiens) turn out when CN(C)c1ccc(CC(=O)N2CCC(=C3c4ccc(Cl)cc4CCc4cccnc43)CC2)cc1 [Example 297] was run?
The IC50 was > 50 µM.

And the IC50 [2, 5]?
The IC50 was 2.71 µM.

And the IC50 ([3]; Homo sapiens, Fibroblast)?
The IC50 was > 50 µM.

What does the source list for O=C(Cc1ccc[n+]([O-])c1)N1CCN(C2c3ccc(Cl)cc3CCc3cccnc32)CC1 (stereo not shown) [Example 197]?
IC50 ([1]; Homo sapiens): 25 µM; IC50 ([2]; FPT IC50, Ras-CVLS farnesylation, partially purified rat brain FPT): 1.17 µM; IC50 ([3]; Homo sapiens, Fibroblast): > 50 µM

What does the source list for CC(S)C(=O)NCC(=O)N1CCN(C2c3ccc(Cl)cc3CCc3cccnc32)CC1 (stereo not shown) [Example 81]?
IC50 ([1]; Homo sapiens): > 50 µM; IC50 [2, 5]: 2.78 µM; IC50 ([3]; Homo sapiens, Fibroblast): > 50 µM

O=C(Nc1ccncc1)N1CCN(C2c3ccc(Cl)cc3CCc3cccnc32)CC1 (stereo not shown) [183 (6.5)] was tested. Which IC50 ([1]; Homo sapiens) did it give?
The IC50 was 5 µM.

What about the IC50 ([3]; Homo sapiens, Fibroblast) of the same molecule?
Its IC50 is 18 µM.

What does the source list for S=C(c1ccccc1)N1CCC(=C2c3ccc(Cl)cc3CCc3cccnc32)CC1 [Example 121]?
IC50 ([1]; Homo sapiens): 50 µM; IC50 [2, 5]: 1.4 µM; IC50 ([3]; Homo sapiens, Fibroblast): > 50 µM

O=C(Cc1ccc[n+]([O-])c1)N1CCC(C2c3ccc(Cl)cc3CCc3ccc[n+]([O-])c32)CC1 (stereo not shown) [Example 237] was tested. Which IC50 ([1]; Homo sapiens) did it give?
The IC50 was > 50 µM.

What about the inhibition at 4 µM ([2]; at 4 μM) of the same molecule?
Its inhibition at 4 µM is 18%.

And the IC50 ([3]; Homo sapiens, Fibroblast)?
The IC50 was > 50 µM.

For O=C(c1ccc(Cl)nc1)N1CCC(=C2c3ccc(Cl)cc3CCc3cccnc32)CC1 [Example 98], which IC50 ([1]; Homo sapiens) is on record?
Its IC50 is 50 µM.

What about the IC50 [2, 5] of the same molecule?
Its IC50 is 4.4 µM.

And the IC50 ([3]; Homo sapiens, Fibroblast)?
The IC50 was > 50 µM.

What does the source list for CC(C)(C)OC(=O)NCC(=O)N1CCN(C2c3ccc(Cl)cc3CCc3cccnc32)CC1 (stereo not shown) [Example 208]?
IC50 ([1]; Homo sapiens): > 50 µM; IC50 [2, 5]: 4.8 µM; IC50 ([3]; Homo sapiens, Fibroblast): > 50 µM

For O=C(Cc1ccncc1)N1CCC(=C2c3ccncc3CCc3cc(Cl)ccc32)CC1 [160 (5.39)], which IC50 [1] is on record?
Its IC50 is 37 µM.

And the IC50 [3]?
Its IC50 is 50 µM.

For Cc1cnc2c(c1)CCc1cc(Cl)ccc1C2=C1CCN(C(=O)Cc2ccncc2)CC1 [Example 301], which IC50 [2, 5] is on record?
Its IC50 is 0.04 µM and 0.075 µM.

What about the IC50 ([3]; Homo sapiens, Fibroblast) of the same molecule?
The IC50 was > 50 µM.

How did the IC50 [1] turn out when O=C(C(=O)N1CCC(=C2c3ccc(Cl)cc3CCc3cccnc32)CC1)c1c[nH]c2ccccc12 [219 (5.92)] was run?
Its IC50 is 25 µM.

What about the IC50 [3] of the same molecule?
Its IC50 is > 50 µM.

What does the source list for O=C(Cc1csc2ccccc12)N1CCC(=C2c3ccc(Cl)cc3CCc3cccnc32)CC1 [221 (5.94)]?
IC50 [1]: 6.25 µM; IC50 [3]: > 50 µM

How did the IC50 [1] turn out when O=C(Cc1ccccc1[N+](=O)[O-])C(=O)N1CCC(=C2c3ccc(Cl)cc3CCc3cccnc32)CC1 [220 (5.93)] was run?
The IC50 was 25 µM.

What about the IC50 [3] of the same molecule?
The IC50 was > 50 µM.

What does the source list for CN1CCCC(CC(=O)N2CCN(C3c4ccc(Cl)cc4CCc4cc(Br)cnc43)CC2)C1 (stereo not shown) [Example 425-U]?
IC50 ([1]; Homo sapiens): 6.25 µM; IC50 ([3]; Homo sapiens, Fibroblast): 10 µM

CN1CCC(CC(=O)N2CCN(C3c4ccc(Cl)cc4CCc4cc(Br)cnc43)CC2)CC1 (stereo not shown) [425-O (5.126)] was tested. Which IC50 [2, 4] did it give?
The IC50 was 0.17 µM and 0.14 µM and 0.122 µM and 0.118 µM and 0.178 µM.

Which IC50 [2, 5] does the source give for CS(=O)(=O)Nc1cnc2c(c1)CCc1cc(Cl)ccc1C2=C1CCN(C(=O)Cc2ccncc2)CC1 [Example 404] here?
Its IC50 is 4.6 µM.

How did the IC50 [2, 5] turn out when O=C(c1cncc2ccccc12)N1CCC(=C2c3ccc(Cl)cc3CCc3cccnc32)CC1 [Example 32] was run?
The IC50 was 8.7 µM.

For CC(=O)N1CCC(=C2c3ccccc3CCc3c2[nH]c2ccccc32)CC1 [Example 140], which IC50 [2, 5] is on record?
The IC50 was 15.7 µM.

With O=C(Cc1cccnc1)N1CCC(C2c3ccc(Cl)cc3C=Cc3c(Cl)ccnc32)CC1 (stereo not shown) [Example 273] as the molecule, how does the IC50 [2, 5] read?
Its IC50 is 0.84 µM.

Which IC50 [2, 5] does the source give for CN(C)c1cc(C(=O)N2CCC(=C3c4ccc(Cl)cc4CCc4cccnc43)CC2)ccn1 [Example 110] here?
The IC50 was 8.3 µM.

With CC(=O)N1CCC(=C2c3ccc(Cl)cc3CCc3ccc(C)nc32)CC1 [Example 63] as the molecule, how does the FPT inhibition ([2]; at 16.4 μM) read?
The FPT inhibition was 1% at 16.4 μM.

CC(C)(C)NC(=O)N1CCC(CC(=O)N2CCN(C3c4ccc(Cl)cc4CCc4cccnc43)CC2)CC1 (stereo not shown) [Example 431-D] was tested. Which IC50 [2, 4] did it give?
The IC50 was 1 µM.

How did the IC50 [2, 5] turn out when O=C(c1ccnnc1)N1CCC(=C2c3ccc(Cl)cc3CCc3cccnc32)CC1 [Example 14] was run?
The IC50 was 4.6 µM.

For O=C(Cc1ccncc1)N1CCC(=C2c3ccc(Cl)cc3CC(O)c3cccnc32)CC1 (stereo not shown) [Example 282], which IC50 [2, 5] is on record?
The IC50 was 4.5 µM.

For O=C(Cc1cc[n+]([O-])cc1)N1CCC(=C2c3ccc(Cl)cc3CCc3cc(F)cnc32)CC1 [Example 411-N], which “FPT inhibition at the concentration in parentheses” value ([2]; (1.3) μM) is on record?
The value was 44(1.3).

And the IC50 [2, 4]?
Its IC50 is ~2 µM.

For Cn1cc(C(=O)N2CCC(=C3c4ccc(Cl)cc4CCc4cccnc43)CC2)ccc1=O [Example 36], which IC50 [2, 5] is on record?
The IC50 was 11.2 µM.

How did the FPT inhibition ([2]; at 13.4 μM) turn out when O=C(c1cc[n+]([O-])cc1)N1CCC(=C2c3ccc(Cl)cc3CCc3ccc[n+]([O-])c32)CC1 [Example 131] was run?
The FPT inhibition was 16% at 13.4 μM.

For COc1ccnc2c1CCc1cc(Cl)ccc1C2=C1CCN(C(C)=O)CC1 [Example 136], which IC50 [2, 5] is on record?
The IC50 was 11.5 µM.

O=C(Cc1ccncc1)N1CCC(=C2c3ccc(Cl)cc3CCc3cc(Cl)ccc32)CC1 [Example 411-L] was tested. Which IC50 [2, 4] did it give?
The IC50 was 0.82 µM.

Which FPT inhibition ([2]; at 46 μM) does the source give for O=C(c1cc[n+]([O-])cc1)N1CCC(=C2c3ccncc3CCc3cc(Cl)ccc32)CC1 [Example 144a] here?
The FPT inhibition was 47% at 46 μM.

With O=C(C1CCSCC1)N1CCC(=C2c3ccc(Cl)cc3CCc3cccnc32)CC1 [Example 103] as the molecule, how does the IC50 [2, 5] read?
The IC50 was 4.6 µM.

For O=C(c1cccnc1O)N1CCC(=C2c3ccc(Cl)cc3CCc3cccnc32)CC1 [Example 114], which IC50 [2, 5] is on record?
The IC50 was 11.1 µM.

C#CC(=O)N1CCC(=C2c3ccc(Cl)cc3CCc3cccnc32)CC1 [Example 9] was tested. Which IC50 [2, 5] did it give?
Its IC50 is 4 µM.

How did the IC50 [2, 4] turn out when O=C(Cc1ccncc1)N1CCC(=C2c3cc([N+](=O)[O-])c(Cl)cc3CCc3cccnc32)CC1 [Example 411-F] was run?
The IC50 was 1.28 µM.

With O=C(C1CCC(=NO)CC1)N1CCC(=C2c3ccc(Cl)cc3CCc3cccnc32)CC1 (stereo not shown) [Example 104] as the molecule, how does the IC50 [2, 5] read?
Its IC50 is 4.7 µM.

With O=C(Cn1cncn1)N1CCC(=C2c3ccc(Cl)cc3CCc3cc(Br)cnc32)CC1 [Example 412] as the molecule, how does the IC50 [2, 5] read?
Its IC50 is 0.52 µM.

Which IC50 [2, 4] does the source give for O=C(Cc1ccc[n+]([O-])c1)N1CCC(=C2c3ccc(Cl)cc3CCc3cc(Cl)cnc32)CC1 [Example 411-U] here?
Its IC50 is 1.12 µM.

With O=C(c1cc([N+](=O)[O-])c(O)c([N+](=O)[O-])c1)N1CCC(=C2c3ccc(Cl)cc3CCc3cccnc32)CC1 [Example 31] as the molecule, how does the IC50 [2, 5] read?
The IC50 was 8.3 µM.

Which IC50 ([2]; FPT IC50, enzyme inhibition) does the source give for O=C(Cc1ccc[n+]([O-])c1)N1CCN([C@@H]2c3ccc(Cl)cc3CCc3cccnc32)CC1 [Example 425-F] here?
Its IC50 is 7 µM.

For CNC(=S)N1CCC(CC(=O)N2CCN(C3c4ccc(Cl)cc4CCc4cccnc43)CC2)CC1 (stereo not shown) [Example 431-E], which IC50 [2, 4] is on record?
Its IC50 is 0.88 µM.

How did the IC50 [1] turn out when O=C(Cc1ccncc1)N1CCC(=C2c3ccc(Cl)cc3CCc3cc(Cl)cnc32)CC1 [180 (5.47)] was run?
The IC50 was 18 µM.

What about the IC50 [3] of the same molecule?
Its IC50 is > 50 µM.

Which FPT inhibition ([2]; at 10 μM) does the source give for O=C(N[C@@H](Cc1ccccc1)C(=O)N1CCN(C2c3ccc(Cl)cc3CCc3cccnc32)CC1)OCc1ccccc1 (stereo partly shown) [Example 213] here?
The FPT inhibition was 23% @.

With O=C(c1ccc(NS(=O)(=O)C(F)(F)F)cc1)N1CCC(=C2c3ccc(Cl)cc3CCc3cccnc32)CC1 [Example 111] as the molecule, how does the IC50 [2, 5] read?
Its IC50 is 8.5 µM.

How did the IC50 [2, 4] turn out when NC(=O)N1CCC(CC(=O)N2CCN(C3c4ccc(Cl)cc4CCc4cccnc43)CC2)CC1 (stereo not shown) [Example 431] was run?
The IC50 was 0.82 µM.

Which IC50 [2, 5] does the source give for O=C(Cc1cccnc1)N1CCC(=C2c3ccc(Cl)cc3CCc3c(SCc4ccccc4)ccnc32)CC1 [Example 258] here?
The IC50 was 10.8 µM.

Which IC50 [2, 5] does the source give for CC(C)(C(=O)N1CCC(=C2c3ccc(Cl)cc3CCc3cccnc32)CC1)c1ccncc1 [Example 299] here?
The IC50 was 1.34 µM.

Which IC50 [2, 5] does the source give for COCC(=O)N1CCC(=C2c3ccc(Cl)cc3CCc3cccnc32)CC1 [Example 58] here?
The IC50 was 14.4 µM.

How did the IC50 [2, 5] turn out when NCC(=O)N1CCC(=C2c3ccc(Cl)cc3CCc3cccnc32)CC1 [Example 118] was run?
The IC50 was 22.3 µM.

Which results are given for O=C(Cc1ccc[n+]([O-])c1)N1CCC(=C2c3ccc(Cl)cc3CCc3cc(F)cnc32)CC1 [Example 411-Q]?
FPT inhibition at the concentration in parentheses ([2]; (4.3) μM): 33 (4.3); IC50 [2, 4]: ~10 µM
